Data: patent US11845760B2, “PRMT5 inhibitors” (AMGEN INC., priority 2020, dated 2023)
Like-named read-outs stand apart in the source and are kept apart here.

Experiments:
[1] = system: HCT116 MTAP null cells; experiment: HCT116 MTAP null cell line proliferation (CellTiter-Glo cell viability, 6 days); assay type: cell-based; conditions: HCT116 MTAP null cells, 6 days of treatment, CellTiter-Glo cell viability, read-out: HCT-116 MTAP null IC50
Protocol: (§1) To assess selective anti-proliferative activity of compounds of the invention in cells that have loss expression of MTAP, an HCT-116 isogenic cell line pair was utilized where one cell line was engineered to genetically knockout both MTAP alleles. Cell viability was then assessed in both the parent HCT-116 cell line and the MTAP null cell line after 6 days of treatment with compounds of the present invention. Selective anti-proliferative activity in the MTAP null cell line indicates MTA-cooperative inhibition of PRMT5 and ability to inhibit growth of cancer cells that have loss of MTAP.
(§2) HCT116 MTAP null and WT cells were seeded in 96-well tissue culture plates in RPMI 1640 media+10% fetal bovine serum. Plates were incubated overnight at 37° C. and 5% CO2. Cells were then treated with an 8- or 9-point serial dilution of compound, using a top concentration of 1, or 10 μM, 1:3 serial dilution steps and, a DMSO-only control. Cells were incubated in the presence of drug for 6 days. Effects on cell viability were measured with the CellTiter-Glo® Luminescent Cell Viability Assay (Promega) per manufacturer's recommendation. Assay plates were read on an EnVision™ Multilabel Reader using the Ultra-Sensitive luminescence module. IC50 values were calculated with GraphPad Prism v 5.01 using symmetrical sigmoidal dose-response least squares fit with Hill slope fixed to −1 and top constrain to 100% or GeneData Screener using a 4-parameter logistic model to fit dose response curves.
(§3) Alternatively, compounds could be assayed with a 384 well plate format:
(§4) Compounds were pre-spotted into 384 well plates with a 22-point serial dilution of compound, using a top concentration of 10 or 50 μM, 1:2 serial dilution steps and, a DMSO-only control. HCT116 MTAP null and WT cells were then seeded as above and after 6 days effects on cell viability were measured with the CellTiter-Glo® Luminescent Cell Viability Assay (Promega). Assay plates were read as above and IC50 values were calculated with GeneData Screener using a 4-parameter logistic model to fit dose response curves. The reported IC50 represents the value where the curve transits 50% of control.

[2] = system: HCT116 WT cells; experiment: HCT116 WT cell line proliferation (CellTiter-Glo cell viability, 6 days); assay type: cell-based; conditions: HCT116 WT (parent) cells, 6 days of treatment, CellTiter-Glo cell viability, read-out: HCT-116 WT IC50
Protocol: as §1, §2, §3, §4

How did the IC50 [1] turn out when `C[C@@H]1COC[C@H](c2ccc(OC(F)F)nn2)N1C(=O)c1ccc2nc(N)c3c(c2c1)COC3` (racemic) [Example 315, (4-amino-1,3-dihydrofuro[3,4-c]quinolin-8-yl)((3R,5S)-3-(6-(difluoromethoxy)-3-pyridazinyl)-5-methyl-4-morpholinyl)methanone and (4-amino-1,3-dihydrofuro[3,4-c]quinolin-8-yl)((3S,5R)-3-(6-(difluoromethoxy)-3-pyridazinyl)-5-methyl-4-morpholinyl)methanone] was run?
The IC50 was 106 nM.

What about the IC50 [2] of the same compound?
The IC50 was 4750 nM.

`C[C@H]1COC[C@@H](c2ccc(OC(F)F)nc2)N1C(=O)c1cc2c3c(c(N)nc2cn1)COC3` (racemic) [Example 318, (4-amino-1,3-dihydrofuro[3,4-c][1,7]naphthyridin-8-yl)((3R,5S)-3-(6-(difluoromethoxy)-3-pyridinyl)-5-methyl-4-morpholinyl)methanone and (4-amino-1,3-dihydrofuro[3,4-c][1,7]naphthyridin-8-yl)((3S,5R)-3-(6-(difluoromethoxy)-3-pyridinyl)-5-methyl-4-morpholinyl)methanone] was tested. Which IC50 ([1]; HCT116-MTAP null, 144 h) did it give?
Its IC50 is 82 nM.

And the IC50 ([2]; Homo sapiens, HCT-116, 144 h)?
The IC50 was 2780 nM.

For `CCOc1ccc([C@@H]2COC[C@H](C)N2C(=O)c2ccc3nc(N)c4c(c3c2)COC4)nn1` (racemic) [Example 319, (4-amino-1,3-dihydrofuro[3,4-c]quinolin-8-yl)((3R,5S)-3-(6-ethoxy-3-pyridazinyl)-5-methyl-4-morpholinyl)methanone and (4-amino-1,3-dihydrofuro[3,4-c]quinolin-8-yl)((3S,5R)-3-(6-ethoxy-3-pyridazinyl)-5-methyl-4-morpholinyl)methanone], which IC50 ([1]; HCT116-MTAP null, 144 h) is on record?
Its IC50 is 145 nM.

And the IC50 ([2]; Homo sapiens, HCT-116, 144 h)?
The IC50 was 5580 nM.

How did the IC50 ([1]; HCT116-MTAP null, 144 h) turn out when `CCOc1ccc([C@@H]2COC[C@H](C)N2C(=O)c2cc3c4c(c(N)nc3cn2)COC4)nn1` (racemic) [Example 320, (4-amino-1,3-dihydrofuro[3,4-c][1,7]naphthyridin-8-yl)((3R,5S)-3-(6-ethoxy-3-pyridazinyl)-5-methyl-4-morpholinyl)methanone and (4-amino-1,3-dihydrofuro[3,4-c][1,7]naphthyridin-8-yl)((3S,5R)-3-(6-ethoxy-3-pyridazinyl)-5-methyl-4-morpholinyl)methanone] was run?
Its IC50 is 101 nM.

And the IC50 ([2]; Homo sapiens, HCT-116, 144 h)?
The IC50 was 3680 nM.

With `CCOc1ccc([C@@H]2COC[C@H](C)N2C(=O)c2ccc3nc(N)c4c(c3c2)CO[C@@H]4C)nn1` (racemic) [Example 321, ((3R)-4-amino-3-methyl-1,3-dihydrofuro[3,4-c]quinolin-8-yl)((3R,5S)-3-(6-ethoxy-3-pyridazinyl)-5-methyl-4-morpholinyl)methanone and ((3R)-4-amino-3-methyl-1,3-dihydrofuro[3,4-c]quinolin-8-yl)((3S,5R)-3-(6-ethoxy-3-pyridazinyl)-5-methyl-4-morpholinyl)methanone] as the compound, how does the IC50 ([1]; HCT116-MTAP null, 144 h) read?
The IC50 was 93 nM.

What about the IC50 ([2]; Homo sapiens, HCT-116, 144 h) of the same compound?
The IC50 was 4960 nM.

Which IC50 ([1]; HCT116-MTAP null, 144 h) does the source give for `CCOc1ccc([C@@H]2COC[C@H](C)N2C(=O)c2cc3c4c(c(N)nc3cc2Cl)COC4)nn1` (racemic) [Example 322, (4-amino-7-chloro-1,3-dihydrofuro[3,4-c]quinolin-8-yl)((3R,5S)-3-(6-ethoxy-3-pyridazinyl)-5-methyl-4-morpholinyl)methanone and (4-amino-7-chloro-1,3-dihydrofuro[3,4-c]quinolin-8-yl)((3S,5R)-3-(6-ethoxy-3-pyridazinyl)-5-methyl-4-morpholinyl)methanone] here?
The IC50 was 6 nM.

What about the IC50 ([2]; Homo sapiens, HCT-116, 144 h) of the same compound?
The IC50 was 279 nM.

How did the IC50 ([1]; HCT116-MTAP null, 144 h) turn out when `CCOc1ccc([C@@H]2COC[C@H](C)N2C(=O)c2cc3c4c(c(N)nc3cn2)[C@@H](C)OC4)nn1` (racemic) [Example 326, ((3R)-4-amino-3-methyl-1,3-dihydrofuro[3,4-c][1,7]naphthyridin-8-yl)((3R,5S)-3-(6-ethoxy-3-pyridazinyl)-5-methyl-4-morpholinyl)methanone and ((3R)-4-amino-3-methyl-1,3-dihydrofuro[3,4-c][1,7]naphthyridin-8-yl)((3S,5R)-3-(6-ethoxy-3-pyridazinyl)-5-methyl-4-morpholinyl)methanone] was run?
The IC50 was 72 nM.

And the IC50 ([2]; Homo sapiens, HCT-116, 144 h)?
The IC50 was 2580 nM.

Which IC50 ([1]; HCT116-MTAP null, 144 h) does the source give for `CCOc1ccc([C@@H]2COC[C@H](C)N2C(=O)c2cc3c4c(c(N)nc3cc2F)COC4)nn1` (racemic) [Example 327, (4-amino-7-fluoro-1,3-dihydrofuro[3,4-c]quinolin-8-yl)((3R,5S)-3-(6-ethoxy-3-pyridazinyl)-5-methyl-4-morpholinyl)methanone and (4-amino-7-fluoro-1,3-dihydrofuro[3,4-c]quinolin-8-yl)((3S,5R)-3-(6-ethoxy-3-pyridazinyl)-5-methyl-4-morpholinyl)methanone] here?
The IC50 was 43 nM.

And the IC50 ([2]; Homo sapiens, HCT-116, 144 h)?
Its IC50 is 2400 nM.

What does the source list for `C[C@H]1COC[C@@H](c2ccc(OC(F)(F)F)cc2F)N1C(=O)c1cc2c3c(c(N)nc2cn1)COC3` (racemic) [Example 328, (4-amino-1,3-dihydrofuro[3,4-c][1,7]naphthyridin-8-yl)((3R,5S)-3-(2-fluoro-4-(trifluoromethoxy)phenyl)-5-methyl-4-morpholinyl)methanone and (4-amino-1,3-dihydrofuro[3,4-c][1,7]naphthyridin-8-yl)((3S,5R)-3-(2-fluoro-4-(trifluoromethoxy)phenyl)-5-methyl-4-morpholinyl)methanone]?
IC50 ([1]; HCT116-MTAP null, 144 h): 49 nM; IC50 ([2]; Homo sapiens, HCT-116, 144 h): 1000 nM

Which IC50 ([1]; HCT116-MTAP null, 144 h) does the source give for `C[C@H]1OCc2c1c(N)nc1ccc(C(=O)N3[C@@H](C)COC[C@H]3c3ccc(OC(F)(F)F)cc3F)cc21` (racemic) [Example 329, ((3R)-4-amino-3-methyl-1,3-dihydrofuro[3,4-c]quinolin-8-yl)((3R,5S)-3-(2-fluoro-4-(trifluoromethoxy)phenyl)-5-methyl-4-morpholinyl)methanone and ((3R)-4-amino-3-methyl-1,3-dihydrofuro[3,4-c]quinolin-8-yl)((3S,5R)-3-(2-fluoro-4-(trifluoromethoxy)phenyl)-5-methyl-4-morpholinyl)methanone] here?
Its IC50 is 50 nM.

And the IC50 ([2]; Homo sapiens, HCT-116, 144 h)?
Its IC50 is 1520 nM.

`C[C@@H]1COC[C@H](c2ccc(C(F)(F)F)cc2F)N1C(=O)c1ccc2nc(N)c3c(c2c1)COC3` (racemic) [Example 333, (4-amino-1,3-dihydrofuro[3,4-c]quinolin-8-yl)((3R,5S)-3-(2-fluoro-4-(trifluoromethyl)phenyl)-5-methyl-4-morpholinyl)methanone and (4-amino-1,3-dihydrofuro[3,4-c]quinolin-8-yl)((3S,5R)-3-(2-fluoro-4-(trifluoromethyl)phenyl)-5-methyl-4-morpholinyl)methanone] was tested. Which IC50 [1] did it give?
The IC50 was 58 nM.

What about the IC50 [2] of the same compound?
The IC50 was 1440 nM.

What does the source list for `C[C@H]1COC[C@@H](c2ccc(C(F)(F)F)cc2F)N1C(=O)c1cc2c3c(c(N)nc2cn1)COC3` (racemic) [Example 334, (4-amino-1,3-dihydrofuro[3,4-c][1,7]naphthyridin-8-yl)((3R,5S)-3-(2-fluoro-4-(trifluoromethyl)phenyl)-5-methyl-4-morpholinyl)methanone and (4-amino-1,3-dihydrofuro[3,4-c][1,7]naphthyridin-8-yl)((3S,5R)-3-(2-fluoro-4-(trifluoromethyl)phenyl)-5-methyl-4-morpholinyl)methanone]?
IC50 ([1]; HCT116-MTAP null, 144 h): 27 nM; IC50 ([2]; Homo sapiens, HCT-116, 144 h): 706 nM

Which results are given for `C[C@H]1OCc2c1c(N)nc1cnc(C(=O)N3CCOC[C@@H]3c3ccc(C(F)(F)F)cc3)cc21` (racemic) [Example 338, ((3R)-4-amino-3-methyl-1,3-dihydrofuro[3,4-c][1,7]naphthyridin-8-yl)((3S)-3-(4-(trifluoromethyl)phenyl)-4-morpholinyl)methanone and ((3S)-((4-amino-3-methyl-1,3-dihydrofuro[3,4-c][1,7]naphthyridin-8-yl)((3S)-3-(4-(trifluoromethyl)phenyl)-4-morpholinyl)methanone]?
IC50 ([1]; HCT116-MTAP null, 144 h): 100 nM; IC50 ([2]; Homo sapiens, HCT-116, 144 h): 5020 nM

What does the source list for `C[C@H]1COC[C@@H](c2ccc(C(F)(F)F)cn2)N1C(=O)c1cc2c3c(c(N)nc2cn1)COC3` (racemic) [Example 339, (4-amino-1,3-dihydrofuro[3,4-c][1,7]naphthyridin-8-yl)((3R,5S)-3-methyl-5-(5-(trifluoromethyl)-2-pyridinyl)-4-morpholinyl)methanone and (4-amino-1,3-dihydrofuro[3,4-c][1,7]naphthyridin-8-yl)((3S,5R)-3-methyl-5-(5-(trifluoromethyl)-2-pyridinyl)-4-morpholinyl)methanone]?
IC50 ([1]; HCT116-MTAP null, 144 h): 20 nM; IC50 ([2]; Homo sapiens, HCT-116, 144 h): 497 nM
